From patent US10201532B2, “Compounds and their use” (ALLECRA THERAPEUTICS GMBH, priority 2010, dated 2019) come the findings set out here.

Assay [1] concerns KPC-3 expressing E. coli (J53 R6206). Kind of assay: microbe, parasite or virus in culture. The assay is classed as cell-based, Escherichia coli. The settings on record: no BLI; E. coli J53 R6206. The protocol:
The β-lactam compound was tested for in vitro antibacterial activities by the broth micro-dilution or agar dilution method as specified in documents published by Clinical and Laboratory Standards Institute (CLSI), USA (formerly NCCLS). Approved standard M7-A7, January 2006, CLSI, Wayne, Pa., USA and M100-S18, January 2008, CLSI, Wayne, Pa., USA.
In agar dilution method briefly, stock solutions of the cephalosporins for veterinary use (e.g. 2 mg/mL) was made in water, 0.1M phosphate buffers or appropriate solvents and the solution was serially two fold diluted. Compound-1 was dissolved in water and Tazobactam (comparator BLI) in 0.1M phosphate buffer, pH 6.0 to get a solution of 1 mg/mL. Cephalosporins were screened in a concentration range of 0.5-32 μg/mL. For combination, Tazobactam or the Compound-1 described herein were tested at a fixed concentration of 4 μg/mL along with the cephalosporins concentration ranging from 0.5 to 32 μg/mL. […] The compound of formula (I) and Tazobactam were also tested individually. The bacterial inoculum was prepared by picking 3 to 5 well isolated bacterial colonies with the same morphological appearance from an 18-24 h old culture and adjusting the turbidity of the saline suspension to 0.5 McFarland turbidity standard equivalent to a bacterial population of ˜1×10^8 CFU per mL of suspension. The suspension was diluted 1:10 in saline to get a bacterial population of ˜1×10^7 CFU/mL as inoculum. This bacterial inoculum was inoculated onto the prepared petri dishes by a multipoint inoculator with each inoculum spot containing ˜1×10^4 CFU of the bacterial strain. The inoculated petri dishes were incubated at 35° C. in an ambient atmosphere for 18-20 h.

Assay [2] has as its system KPC-2 producing K. pneumoniae (ATCC BAA-1705). The assay is described as follows: Synergistic broth micro-dilution MIC (checkerboard). The assay is classed as cell-based, Klebsiella pneumoniae. The conditions noted are these: ATCC BAA-1705; for MIC: Klebsiella pneumoniae, ATCCBAA1705, no BLI, read-out: MIC of antibiotic alone (no BLI).
Assay [3] relates to KPC-3 expressing E. coli (J53 R6206). The assay is described as above. The assay is classed as cell-based, Escherichia coli.
In another assay the test system is E. coli Ecoli233 (KPC3). The assay is described as follows: Synergistic broth micro-dilution MIC. The assay is classed as cell-based, Escherichia coli. On the technique in general: Dilution methods test growth across graded concentrations, often in twofold steps.

As a reminder, the MIC is the least concentration at which growth counts as inhibited. As to `CC1=C(C(=O)O)N2C(=O)[C@@H](NC(=O)[C@H](N)c3ccc(O)cc3)[C@H]2SC1` [Cefadroxil], in assay [1], the “MIC of veterinary cephalosporin alone (no BLI)” value is more than 32 µg/mL. The MIC in assay [2] was more than 64 µg/mL.

Regarding `NC(=O)c1cc[n+](CC2=C(C(=O)[O-])N3C(=O)[C@@H](NC(=O)Cc4cccs4)[C@H]3SC2)cc1` [Cefalonium], the “MIC of veterinary cephalosporin alone (no BLI)” value in assay [1] came to 32 µg/mL. Also, the MIC in assay [2] is more than 64 µg/mL.

For the compound `CO/N=C(\C(=O)N[C@@H]1C(=O)N2C(C(=O)[O-])=C(C[N+]3(C)CCCC3)CS[C@H]12)c1csc(N)n1` [Cefepime], the MIC in assay [2] was more than 128 µg/mL. In assay [3], the “MIC of antibiotic alone (no BLI)” value is more than 16 µg/mL.

In the case of `CO/N=C(\C(=O)N[C@@H]1C(=O)N2C(C(=O)O)=C(COC(C)=O)CS[C@H]12)c1csc(N)n1` [Cefotaxime], the MIC in assay [2] is more than 128 µg/mL. In addition, the “MIC of antibiotic alone (no BLI)” value in assay [3] is more than 32 µg/mL.

On to `CO/N=C(\C(=O)N[C@@H]1C(=O)N2C(C(=O)[O-])=C(C[n+]3cccc4c3CCCC4)CS[C@H]12)c1csc(N)n1` [Cefquinome], for which the “MIC of veterinary cephalosporin alone (no BLI)” value in assay [1] was 16 µg/mL. Moreover, the “MIC of antibiotic alone (no BLI)” value in assay [2] (no BLI) is more than 64 µg/mL.

For `CO/N=C(\C(=O)N[C@@H]1C(=O)N2C(C(=O)O)=C(CSC(=O)c3ccco3)CS[C@H]12)c1csc(N)n1` [Ceftiofur], the “MIC of veterinary cephalosporin alone (no BLI)” value in assay [1] came to 16 µg/mL. Also, the MIC in assay [2] was more than 64 µg/mL.

As for `Nc1nc(/C(=N/O)C(=O)N[C@@H]2C(=O)N3C(C(=O)O)=C(/C=C4\CCN([C@@H]5CCNC5)C4=O)CS[C@H]23)ns1` [Ceftobiprole], the MIC in assay [2] was more than 64 µg/mL. In addition, the “MIC of antibiotic alone (no BLI)” value in assay [3] is more than 32 µg/mL.

Take `CC[n+]1ccn(C[C@@]2(C)[C@H](C(=O)O)N3C(=O)C[C@H]3S2(=O)=O)n1` [Compound-2, 1-{[(2S,3S,5R)-2-Carboxy-3-methyl-4,4,7-trioxo-4-thia-1-azabicyclo[3.2.0]hept-3-yl]methyl}-3-ethyl-1H-1,2,3-triazol-3-ium]: the “MIC of BLI alone” value in assay [2] and in assay [3] was more than 16 µg/mL throughout. The “MIC of Imipenem in combination with BLI” value in assay [2] (BLI at 4 μg/mL) amounted to 4 µg/mL; in assay [2] (BLI at 16 μg/mL), 1 µg/mL; in assay [3] (BLI at 4 μg/mL), 0.5 µg/mL; in assay [3] (BLI at 16 μg/mL) it was 0.25 µg/mL. Moreover, the “MIC of Meropenem in combination with BLI” value in assay [2] (BLI at 4 μg/mL) is 8 µg/mL; in assay [2] (BLI at 16 μg/mL), 2 µg/mL; in assay [3] (BLI at 4 μg/mL), less than 0.125 µg/mL; in assay [3] (BLI at 16 μg/mL), less than 0.125 µg/mL.

Take `C=CC[n+]1ccn(C[C@@]2(C)[C@H](C(=O)O)N3C(=O)C[C@H]3S2(=O)=O)n1` [Compound-4, 1-{[(2S,3S,5R)-2-Carboxy-3-methyl-4,4,7-trioxo-4-thia-1-azabicyclo[3.2.0]hept-3-yl]methyl}-3-allyl-1H-1,2,3-triazol-3-ium]: the “MIC of BLI alone” value in assay [2] and in assay [3] was more than 16 µg/mL throughout. Further, the “MIC of Imipenem in combination with BLI” value in assay [2] (BLI at 4 μg/mL) amounted to 4 µg/mL; in assay [2] (BLI at 16 μg/mL), 1 µg/mL; in assay [3] (BLI at 4 μg/mL), 0.5 µg/mL; in assay [3] (BLI at 16 μg/mL), 0.25 µg/mL. Further, the “MIC of Meropenem in combination with BLI” value in assay [2] (BLI at 4 μg/mL) is 8 µg/mL; in assay [2] (BLI at 16 μg/mL) it was 4 µg/mL; in assay [3] (BLI at 4 μg/mL), less than 0.125 µg/mL; in assay [3] (BLI at 16 μg/mL), less than 0.125 µg/mL.

For the compound `C[C@]1(Cn2cc[n+](CC(N)=O)n2)[C@H](C(=O)O)N2C(=O)C[C@H]2S1(=O)=O` [Compound-5, 1-{[(2S,3S,5R)-2-Carboxy-3-methyl-4,4,7-trioxo-4-thia-1-azabicyclo[3.2.0]hept-3-yl]methyl}-3-(2-amino-2-oxoethyl)-1H-1,2,3-triazol-3-ium], the “MIC of BLI alone” value in assay [2] and in assay [3] was more than 16 µg/mL in each case. The “MIC of Imipenem in combination with BLI” value is 8 µg/mL in assay [2] (BLI at 4 μg/mL), 1 µg/mL in assay [2] (BLI at 16 μg/mL), 0.5 µg/mL in assay [3] (BLI at 4 μg/mL) and 0.25 µg/mL in assay [3] (BLI at 16 μg/mL). Moreover, the “MIC of Meropenem in combination with BLI” value in assay [2] (BLI at 4 μg/mL) was 8 µg/mL; in assay [2] (BLI at 16 μg/mL), 2 µg/mL; in assay [3] (BLI at 4 μg/mL) it was less than 0.125 µg/mL; in assay [3] (BLI at 16 μg/mL), less than 0.125 µg/mL.

`CC(C)(C)OC(=O)C[n+]1ccn(C[C@@]2(C)[C@H](C(=O)O)N3C(=O)C[C@H]3S2(=O)=O)n1` [Compound-6, 1-{[(2S,3S,5R)-2-Carboxy-3-methyl-4,4,7-trioxo-4-thia-1-azabicyclo[3.2.0]hept-3-yl]methyl}-3-(2-t-butoxy-2-oxoethyl)-1H-1,2,3-triazol-3-ium]: the “MIC of BLI alone” value in assay [2] and in assay [3] was more than 16 µg/mL in each case. The “MIC of Imipenem in combination with BLI” value was 8 µg/mL in assay [2] (BLI at 4 μg/mL), 8 µg/mL in assay [2] (BLI at 16 μg/mL), 1 µg/mL in assay [3] (BLI at 4 μg/mL) and 0.5 µg/mL in assay [3] (BLI at 16 μg/mL). The “MIC of Meropenem in combination with BLI” value in assay [2] (BLI at 4 μg/mL) was 16 µg/mL; in assay [2] (BLI at 16 μg/mL), 4 µg/mL; in assay [3] (BLI at 4 μg/mL), 0.5 µg/mL; in assay [3] (BLI at 16 μg/mL) it was less than 0.125 µg/mL.

On to `CCOC(=O)CNC(=O)C[n+]1ccn(C[C@@]2(C)[C@H](C(=O)O)N3C(=O)C[C@H]3S2(=O)=O)n1` [Compound-8, 1-{[(2S,3S,5R)-2-Carboxy-3-methyl-4,4,7-trioxo-4-thia-1-azabicyclo[3.2.0]hept-3-yl]methyl}-3-{2[(2-ethoxy-2-oxoethyl)amino]-2-oxoethyl}-1H-1,2,3-triazol-3-ium], for which the “MIC of BLI alone” value in assay [2] and in assay [3] was more than 16 µg/mL each time. Further, the “MIC of Imipenem in combination with BLI” value in assay [2] (BLI at 4 μg/mL) was 8 µg/mL; in assay [2] (BLI at 16 μg/mL) it was 4 µg/mL; in assay [3] (BLI at 4 μg/mL), 1 µg/mL; in assay [3] (BLI at 16 μg/mL), 0.25 µg/mL. Moreover, the “MIC of Meropenem in combination with BLI” value in assay [2] (BLI at 4 μg/mL) was 8 µg/mL; in assay [2] (BLI at 16 μg/mL), 4 µg/mL; in assay [3] (BLI at 4 μg/mL), 0.25 µg/mL; in assay [3] (BLI at 16 μg/mL) it was less than 0.125 µg/mL.

Consider `Cc1cn(C[C@@]2(C)[C@H](C(=O)[O-])N3C(=O)C[C@H]3S2(=O)=O)c[n+]1C` [Compound-13, (2S,3S,5R)-3-Methyl-3-(4-methyl-3-methyl-imidazol-3-ium-1-ylmethyl)-4,4,7-trioxo-4-thia-1-aza-bicyclo[3.2.0]heptane-2-carboxylate], for which the “MIC of Imipenem in combination with BLI” value worked out at 8 µg/mL in the assay with E. coli Ecoli233 (KPC3) (BLI at 4 μg/mL), 1 µg/mL with E. coli Ecoli233 (KPC3) (BLI at 16 μg/mL), 2 µg/mL in assay [2] (BLI at 4 μg/mL) and 2 µg/mL in assay [2] (BLI at 16 μg/mL).

On to `C[C@@H](O)[C@H]1C(=O)N2C(C(=O)O)=C(S[C@@H]3CN[C@H](C(=O)Nc4cccc(C(=O)O)c4)C3)[C@H](C)[C@H]12` [Ertapenem], for which, in assay [2], the MIC was more than 64 µg/mL.

Consider `C[C@@H](O)[C@H]1C(=O)N2C(C(=O)O)=C([C@H]3CCCO3)S[C@H]12` [Faropenem], for which the MIC in assay [2] is more than 64 µg/mL.

`C[C@@H](O)[C@H]1C(=O)N2C(C(=O)O)=C(S[C@@H]3CN[C@H](C(=O)N(C)C)C3)[C@H](C)[C@H]12` [Meropenem]: the MIC in assay [2] was 32 to 64 µg/mL. In assay [3], the “MIC of antibiotic alone (no BLI)” value lay in the range of 2 to 4 µg/mL.
